Experimental data from US6514997B2, “Antipicornaviral compounds and compositions, their pharmaceutical uses, and materials for their synthesis” (Agouron Pharmaceuticals, Inc., priority 1999, dated 2003).
Like-named read-outs stand apart in the source and are kept apart here.

Experiments:
[1] = tested on: strains of human rhinovirus (HRV); assay: Antirhinoviral H1-HeLa cell culture assay (XTT cell protection, EC50), other HRV strains; assay type: cell-based, human rhinovirus in H1-HeLa cells; settings: read-out: EC50
Procedure: (§1) Antirhinoviral H1-HeLa Cell Culture Assay:
(§2) In this cell protection assay, the ability of compounds to protect cells against HRV infection was measured by the XTT dye reduction method, which is described in Weislow et al., J. Natl. Cancer Inst. (1989), vol. 81, 577-586. H1-HeLa cells were infected with HRV-14 at a multiplicity of infection (m.o.i.) of 0.13 (virus particles/cell) or mock-infected with medium only. Infected or mock-infected cells were resuspended at 8×10^5 cells per mL, and incubated with appropriate concentrations of the compounds to be tested. Two days later, XTT/PMS was added to test plates and the amount of formazan produced was quantified spectrophotometrically at 450/650 nm. […] The therapeutic index (TI) was calculated by dividing the CC50 value by the EC50 value.
(§3) All strains of human rhinovirus (HRV) for use in this assay were purchased from American Type Culture Collection (ATCC), except for HRV serotype-14 (produced from the infectious cDNA clone constructed by Dr. Robert Rueckert, Institute for Molecular Virology, University of Wisconsin, Madison, Wis.). HRV stocks were propagated and viral assays were performed in H1-HeLa cells (ATCC). Cells were grown in minimal essential medium with 10% fetal bovine serum, available from Life Technologies (Gaithersburg, Md.).

H1-HeLa cells = assay: Cytotoxicity (CC50) in mock-infected H1-HeLa cells, XTT dye reduction; assay type: cell-based, human
Procedure: as §2, with “(1989), vol. 81, 577-586.” left out
as §3
(§4) Coxsackievirus types A-21 (CAV-21) and B3 (CVB3) were purchased from American Type Culture Collection (ATCC, Rockville, Md.). Virus stocks were propagated and antiviral assays were performed in H1-HeLa cells (ATCC). Cells were grown in minimal essential medium with 10% fetal bovine serum (Life Technologies, Gaithersburg, Md.). The ability of the compounds of this invention to protect cells against either CAV-21 or CVB3 infection was measured by the XTT dye reduction method. This method is described in Weislow et al., J. Natl. Cancer Inst. […] H1-HeLa cells were infected with CAV-21 or CVB3 at a multiplicity of infection (m.o.i.) of 0.025 or 0.075, respectively, or mock-infected with medium only. H1-HeLa cells were plated at 4×10^4 cells per well in a 96-well plate and incubated with appropriate concentrations of the test compound. One day (CVB3) or two days (CAV-21) later, XTT/PMS was added to test plates and the amount of formazan produced was quantified spectrophotometrically at 450/650 nm. […] The therapeutic index (TI) was calculated by dividing the CC50 by the EC50.

[2] = target: T1, Recombinant rhinovirus 3C protease, serotype 14 (Human rhinovirus 14, UniProt P03303); assay: Inhibition of rhinovirus 3C protease (FRET assay, kobs/[I]), serotype 14; assay type: biochemical; settings: for kinact/KI: pH 7.6, read-out: kobs/[I] (3C protease inhibition activity)
T1 construct: Recombinant rhinovirus 3C proteases; made in house
T1 sequence (P03303 1538-1719): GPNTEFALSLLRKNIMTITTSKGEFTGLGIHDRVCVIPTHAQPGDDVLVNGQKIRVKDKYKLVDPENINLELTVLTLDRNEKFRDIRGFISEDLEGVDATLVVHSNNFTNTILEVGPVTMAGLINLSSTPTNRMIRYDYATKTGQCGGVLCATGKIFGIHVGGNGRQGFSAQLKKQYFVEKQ
Procedure: Inhibition of Rhinovirus 3C Protease:
Stock solutions (50 mM, in DMSO) of various compounds were prepared; dilutions were in the same solvent. Recombinant rhinovirus 3C proteases (see Birch et al., “Purification of recombinant human rhinovirus 14 3C protease expressed in Escherichia coli,” Protein Expr. Pur. (1995), vol. 6(5), 609-618) from serotypes 14, 16, and 2 were prepared by the following standard chromatographic procedures: (1) ion exchange using Q Sepharose Fast Flow from Pharmacia; (2) affinity chromatography using Affi-Gel Blue from Biorad; and (3) sizing using Sephadex G-100 from Pharmacia. Each assay sample contained 2% DMSO, 50 mM tris pH 7.6, 1 mM EDTA, a test compound at the indicated concentration, approximately 1 μM substrate, and 50-100 nM protease. The kobs/I values were obtained from reactions initiated by addition of enzyme rather than substrate. RVP activity was measured in the fluorescence resonance energy transfer assay. The substrate was (N-terminal) DABCYL-([…]-EDANS. In the uncleaved peptide, the EDANS fluorescence was quenched by the proximal DABCYL moiety. When the peptide was cleaved, the quenching was relieved, and activity was measured as an increase in fluorescence signal. The tabulated data in the column designated kobs/[I] were measured from progress curves in enzyme start experiments.

HRV-14 = assay: Antirhinoviral H1-HeLa cell culture assay (XTT cell protection, EC50), HRV-14; assay type: cell-based, human rhinovirus (HRV) serotype-14 in H1-HeLa cells
Procedure: as §1
as §2, with “(1989), vol. 81, 577-586.” left out
as §3

[3] = Cytotoxicity (CC50) in mock-infected H1-HeLa cells, XTT dye reduction; assay type: cell-based, human; settings: human, H1-HeLa cells, mock-infected; line of HRV-14
Procedure: as §2, with “(1989), vol. 81, 577-586.” left out
as §3, §4

C#CC[C@@H](C(=O)N[C@H](/C=C/C(=O)OCC(C)(C)C)C[C@@H]1CCNC1=O)n1cccc(NC(=O)c2cc(C)on2)c1=O (relative stereo) [Compound 32, trans-(2′S,3″″S,4S)-4-(2′-{3″-[(5′″-Methylisoxazole-3′″-carbonyl)amino]-2″-oxo-2″H-pyridin-1″-yl}-pent-4′-ynoylamino)-5-(2″″-oxopyrrolidin-3″″-yl)pent-2-enoic acid 2,2-Dimethylpropyl Ester]
EC50 ([1]; HRV-1A): 179 nM | EC50 ([1]; HRV-2): 105 nM | EC50 ([1]; HRV-3): 59 nM | EC50 ([1]; HRV-9): 500 nM | EC50 ([1]; HRV-10): 156 nM | EC50 ([1]; HRV-16): 184 nM | EC50 ([1]; HRV-25): 547 nM | EC50 ([1]; HRV-39): 410 nM | EC50 ([1]; HRV-87): 33 nM | CC50 (H1-HeLa cells; line of HRV-1A): > 10000 nM | CC50 (H1-HeLa cells; line of HRV-2): > 10000 nM | CC50 (H1-HeLa cells; line of HRV-3): > 10000 nM | CC50 (H1-HeLa cells; line of HRV-9): > 10000 nM | CC50 (H1-HeLa cells; line of HRV-10): > 10000 nM | CC50 (H1-HeLa cells; line of HRV-14): > 10000 nM | CC50 (H1-HeLa cells; line of HRV-16): > 10000 nM | CC50 (H1-HeLa cells; line of HRV-25): > 10000 nM | CC50 (H1-HeLa cells; line of HRV-39): > 10000 nM | CC50 (H1-HeLa cells; line of HRV-87): > 10000 nM | kobs/[I] (3C protease inhibition activity) ([2]; HRV-14): 127,500 M^−1s^−1 | EC50 (HRV-14; HRV-14, read-out: EC50): 126 nM

CCC(C(=O)N[C@H](/C=C/C(=O)OCC(C)(C)C)C[C@@H]1CCNC1=O)n1cccc(NC(=O)c2cc(C)on2)c1=O (relative stereo) [Compound 42, trans-(2′S,3′″″S,4S)-4-[2′-(3″-{[1′″-(5″″-Methylisoxazol-3″″-yl)methanoyl]amino}-2′″-oxo-2′″H-pyridin-1′″-yl)butanoylamino]-5-(2′″″-oxopyrrolidin-3′″″-yl)pent-2-enoic Acid 2,2-Dimethylpropyl Ester]
EC50 ([1]; HRV-2): 161 nM | EC50 ([1]; HRV-3): 152 nM | EC50 ([1]; HRV-9): 521 nM | EC50 ([1]; HRV-16): 402 nM | EC50 ([1]; HRV-25): 611 nM | EC50 ([1]; HRV-39): 158 nM | CC50 (H1-HeLa cells; line of HRV-2): > 10000 nM | CC50 (H1-HeLa cells; line of HRV-3): > 10000 nM | CC50 (H1-HeLa cells; line of HRV-9): > 10000 nM | CC50 (H1-HeLa cells; line of HRV-14): > 10000 nM | CC50 (H1-HeLa cells; line of HRV-16): > 10000 nM | CC50 (H1-HeLa cells; line of HRV-25): > 10000 nM | CC50 (H1-HeLa cells; line of HRV-39): > 10000 nM | kobs/[I] (3C protease inhibition activity) ([2]; HRV-14): 38,200 M^−1s^−1 | EC50 (HRV-14; HRV-14, read-out: EC50): 168 nM

CCOC(=O)/C=C/[C@H](C[C@@H]1CCNC1=O)NC(=O)[C@@H](Cc1ccccc1)n1ccc2cc[nH]c2c1=O [Compound 4]
kinact/KI ([2]; HRV-14): 574 M⁻¹ s⁻¹

CCOC(=O)/C=C/[C@H](CCC(N)=O)NC(=O)[C@H](Cc1ccc(F)cc1)n1cccc(NC(=O)C(F)(F)F)c1=O [Compound 24, trans-(2′S,4S)-6-Carbamoyl-4-{3′-(4″-fluorophenyl)-2′-[2′″-oxo-3′″-(2″″,2″″,2″″-trifluoroacetylamino)-2′″H-pyridin-1′″-yl]propionylamino}hex-2-enoic Acid Ethyl Ester]
kinact/KI ([2]; HRV-14): 8800 M⁻¹ s⁻¹

Cc1cc(C(=O)Nc2ccc3n(c2=O)[C@H](C(=O)N[C@H](/C=C2\CCOC2=O)C[C@@H]2CCNC2=O)CC3)no1 [Compound 38, trans-(2″S,3S,3′″S)-6-[(5′-Methylisoxazole-3′-carbonyl)amino]-5-oxo-1,2,3,5-tetrahydroindolizine-3-carboxylic Acid [2″-(2′″-oxodihydrofuran-3′″-ylidene)-1″-(2″″-oxopyrrolidin-3″″-ylmethyl)ethyl]amide]
CC50 at 2 days [3]: > 100000 nM | EC50 (HRV-14; Rhinovirus B, HRV14, H1-HeLa, HRV-14, read-out: EC50): 16800 nM

CCOC(=O)/C=C/[C@H](C[C@@H]1CCNC1=O)NC(=O)[C@H](Cc1ccccc1)N1CCc2c(C)c[nH]c2C1=O [Compound 45, 4S-[2S-(3-Methyl-7-oxo-1,4,5,7-tetrahydro-pyrrolo[2,3-c]pyridin-6-yl)3-phenyl-propionylamino]-5-(2-oxo-pyrrolidin-3-yl)pent-2(trans)-enoic acid ethyl ester]
kinact/KI ([2]; HRV-14): 673 M⁻¹ s⁻¹

Cc1cc(C(=O)Nc2cccn([C@@H](Cc3ccc(F)c(F)c3)C(=O)N[C@H](/C=C/C(=O)O)C[C@@H]3CCNC3=O)c2=O)no1 [Compound 51, trans-(2′S,3″″″S,4S)-4-[3′-(3″,4″-Difluorophenyl)-2′-(3′″-{[1″″-(5′″″-methylisoxazol-3′″″-yl)methanoyl]amino}-2″″-oxo-2″″H-pyridin-1″″-yl)propanoylamino]-5-(2″″″-oxopyrrolidin-3″″″-yl)pent-2-enoic Acid]
EC50 ([1]; Human rhinovirus sp., HRV9, H1-HeLa, HRV-9): > 1000 nM | EC50 ([1]; Human rhinovirus sp., HRV16, H1-HeLa, HRV-16): > 10000 nM | EC50 ([1]; Human rhinovirus sp., HRV25, H1-HeLa, HRV-25): > 10000 nM | CC50 (H1-HeLa cells; line of HRV-9): > 10000 nM | CC50 (H1-HeLa cells; line of HRV-16): > 10000 nM | CC50 (H1-HeLa cells; line of HRV-25): > 10000 nM | CC50 at 2 days [3]: > 10000 nM | EC50 (HRV-14; Rhinovirus B, HRV14, H1-HeLa): > 10000 nM

CC[C@@H](C(=O)N[C@H](/C=C/C(=O)OC1CCCCCC1)C[C@@H]1CCNC1=O)n1cccc(NC(=O)c2cc(C)on2)c1=O [Compound 61, trans-(2′S,3′″″S,4S)-4-[2′-(3″-{[1′″-(5″″-Methylisoxazol-3″″-yl)methanoyl]amino}-2′″oxo-2′″H-pyridin-1′″-yl)butanoylamino]-5-(2′″″-oxopyrrolidin-3′″″-yl)pent-2-enoic Acid Cycloheptyl Ester]
kinact/KI ([2]; HRV-14 3C protease): 15000 M⁻¹ s⁻¹

CCOC(=O)/C=C/[C@H](C[C@@H]1CCNC1=O)NC(=O)[C@H](CC)n1cc(C(F)(F)F)cc(NC(=O)c2cc(C)on2)c1=O [Compound 68, trans-(2′S,3″″S,4S)-4-[2′-({[1″-(5′″-Methylisoxazol-3′″-yl)methanoyl]amino}-oxotrifluoromethyl-2″H-pyridin-1″-yl)butanoylamino]-5-(2″″-oxopyrrolidin-3″″-yl)pent-2-enoic Acid Ethyl Ester]
kinact/KI ([2]; HRV-14 3C protease): 39500 M⁻¹ s⁻¹

Cc1cc(CCCCCCCOc2ccc(C3=NCCO3)cc2)on1 [WIN 51711, reference compound]
CC50 (H1-HeLa cells; HRV-14): > 60000 nM | EC50 (HRV-14; HRV-14, read-out: EC50): 780 nM

Cc1cc(CCCCCCCOc2ccc(C3=N[C@@H](C)CO3)cc2)on1 [WIN 52084, reference compound]
CC50 (H1-HeLa cells; HRV-14): > 10000 nM | EC50 (HRV-14; HRV-14, read-out: EC50): 70 nM
